Tested on: STAT5 phosphorylation downstream of JAK3 in human YT cells
Experiment: pSTAT5 cell assay (IL-2 stimulated YT cells, AlphaScreen)
Assay type: cell-based
Details: IL-2 stimulation, read-out: Inhibition values (IC50) pSTAT5
From the text: STAT5 phosphorylation represents one of the proximal events in the signalling cascade downstream of JAK3 activation. Therefore STAT5 phosphorylation is an appropriate readout to assess the mechanistic effect of JAK3 inhibition. Stimulation of human YT cells, an NK-like cell line, with interleukin-2 (IL-2) results in phosphorylation of STAT5 at tyrosine residue 694 (Tyr694) that can be quantitatively measured by immunodetection with specific antibodies and an appropriate detection method, in this case AlphaScreen assay technology.
Human YT cells were grown in RPMI medium (Lonza, BE12-167) with 2 mM L-Glutamine (Invitrogen, 25030-024) and 10% heat-inactivated FBS (Invitrogen, 10106-169) and kept in a humidified incubator (37° C., 5% CO2). Cells were harvested by centrifugation, washed once with HBSS (Invitrogen, 14180-046), resuspended in HBSS at 1.5×10^6 cells/ml and 0.9×10^4 cells were seeded in 6 μl per well in a 96 well White plate (PerkinElmer, 6005569).
Test compounds were dissolved in DMSO and a 1:3 dilution series (9 steps) was prepared. To generate a dose response curve, 3 μl of fourfold concentrated compound in 4% DMSO/HBSS were added to each cell sample in the 96 well plate resulting in a final DMSO concentration of 1% DMSO. Cells were incubated for one hour in a humidified incubator (37° C., 5% CO2). To each well 3 μl of a fourfold concentrated IL-2 solution (Recombinant human IL-2, Peprotech 200-02; 120 nM solution in HBSS) was added and incubated for 30 minutes at room temperature. Cells were lysed by adding 3 μl of 5× lysis buffer (SureFire lysis buffer; Perkin Elmer, TGRS5S10K) and incubated for 10 minutes at room temperature with gentle shaking
For signal detection by AlphaScreen® technology the SureFire phospho-STAT5 (Tyr694/Tyr699) kit was used according to instructions provided by the manufacturer (Perkin Elmer, TGRS5S10K). Acceptor beads were added as recommended by the manufacturer (Reactivation buffer/Activation buffer/Acceptor beads at a ratio of 40:10:1) and incubated at room temperature for 1.5 hours with gentle shaking Then donor beads were added as recommended (Dilution buffer/Donor beads at a ratio of 20:1) and incubated at room temperature for 1.5 hours with gentle shaking Plates were read on an Envision instrument (Perkin Elmer) with the AlphaScreen protocol. Data were analysed in BioAssay using the nonlinear regression for a sigmoidal dose-response with a variable slope.

Q: Which IC50 does the source give for `NC(=O)Cn1cc(Nc2ncc(Cl)c(N[C@H](CO)c3cccc(F)c3)n2)cn1` [Compound 87] here?
A: Its IC50 is under 250 nM.

From patent US20140179664A1, “Heterocyclyl Pyrimidine Analogues As JAK Inhibitors” (Cellzome Limited, priority 2011, published 2014)
